Assay results: PMC10976043, “Function and Mechanism of Antiviral Wasp Venom Peptide Protopolybia-MP III and Its Derivatives against HSV-1” (Toxins, 2024)
Like-named read-outs stand apart in the source and are kept apart here. Ends that are not written are not given here.

How the values were obtained:
HSV-1 ICP0 = type: cell-based, herpes simplex virus type 1; conditions: for inhibition rate on intracellular HSV-1 ICP0 protein expression: ICP0, 1 h; for inhibition rate on intracellular HSV-1 ICP0 expression level: ICP0, 24 h
Method: (§1) (A) Amino acid sequence of Protopolybia-MP III. Basic residues are labeled blue, and acidic residues are labeled red. (B,C) Suppression of intracellular HSV-1 infection by Protopolybia-MP III. Cells were preincubated with Protopolybia-MP III at different concentrations or PBS for 1 h and then infected with HSV-1 at a multiplicity of infection (MOI) of 1. After 24 h, the cells were collected. Intracellular HSV-1 RNA was analyzed by qPCR (B), and intracellular HSV-1 ICP0 protein levels were analyzed by Western blotting (C). (D) Suppression of Protopolybia-MP III on extracellular HSV-1 particles. Cells were treated with Protopolybia-MP III at different concentrations or PBS for 24 h, and then the supernatant was collected and evaluated in a plaque formation assay. (E) Cytotoxicity of Protopolybia-MP III to Vero cells. Cells were treated with Protopolybia-MP III or PBS at different concentrations for 24 h, and then the cytotoxicity was determined by CCK8 assay. * p < 0.05. ** p < 0.01. *** p < 0.001.
(§2) Figure 2 Protopolybia-MP III inhibits HSV-1 replication in human cell lines. (A) Cytotoxicities of Protopolybia-MP III to A549 cells, HCEC, and SK-N-MC. Cells were treated with Protopolybia-MP III at different concentrations or PBS for 24 h, and then cytotoxicities were determined by the CCK8 assay. (B,C) Suppression of intracellular HSV-1 infection by Protopolybia-MP III in A549 cells, HCEC, and SK-N-MC. Cells were preincubated with Protopolybia-MP III at different concentrations or PBS for 1 h and then infected with HSV-1 at an MOI of 1. After 24 h, the cells were collected. Intracellular HSV-1 RNA was analyzed by qPCR (B), and intracellular HSV-1 ICP0 protein expression levels were analyzed by Western blotting (C). (D) Inhibition of Protopolybia-MP III on extracellular HSV-1 particles in A549 cells, HCEC, and SK-N-MC. Cells were treated with Protopolybia-MP III at different concentrations or PBS for 24 h, and then the supernatant was collected and evaluated in a plaque formation assay. * p < 0.05. ** p < 0.01. *** p < 0.001.
(§3) Figure 7 Antiviral activity analysis of Protopolybia-MP III mutants. (A) Amino acid sequences of Protopolybia-MP III mutants. Identical amino acids among Protopolybia-MP I, Protopolybia-MP III, and its mutants are marked in blue, and different amino acids are marked in red. (B) Suppression of Protopolybia-MP I, Protopolybia-MP III, and its mutants on intracellular HSV-1 content. Cells were preincubated with 20 μg/mL peptides or PBS for 1 h and then infected with HSV-1 at an MOI of 1. After 24 h, the cells were collected. Intracellular HSV-1 ICP0 protein levels were analyzed by Western blotting. The ratios of HSV-1 ICP0 to GAPDH were calculated by ImageJ software. (C) Inhibition of HSV-1 free virion infectivity by Protopolybia-MP I, Protopolybia-MP III, and its mutants. HSV-1 (MOI = 1) and 5 μg/mL peptides or PBS were coincubated at 37 °C for 1 h, and the mixtures were then used to infect Vero cells. After 24 h, cells were collected, and intracellular HSV-1 RNA was analyzed by qPCR. ns, no significance. * p < 0.05. ** p < 0.01. *** p < 0.001.
(§4) HSV-1 was kindly provided by Professor Zhijian Cao of Wuhan University. Cells were infected with HSV-1 at an MOI of 1 for 24 h. Then, cells were collected for qPCR, Western blotting, and immunofluorescence assays, and the extracellular supernatant was used for plaque formation assays.
Cells were collected and lysed in 1% SDS. The cell lysate was heated at 100 °C for 20 min and centrifuged at 12,000 rpm at 4 °C for 15 min, and then the supernatant was collected and assayed with a BCA Protein Quantification Kit (Vazyme). Equal amounts of protein were separated using a PAGE Gel Fast Preparation Kit (10%) (Epizyme Biotech, Wuhan, China) and transferred to nitrocellulose (NC) membranes (Millipore, Wuhan, China). […]

HSV-1 virion = experiment: HSV-1 free virion infectivity assay, qPCR; type: cell-based, herpes simplex virus type 1; conditions: mutant comparison (Figure 7C): 5 μg/mL coincubated with HSV-1 (MOI 1) at 37 °C for 1 h, then Vero cells infected, 24 h
Method: Figure 5 Protopolybia-MP III destroys the integrity of HSV-1 free virions. (A) Schematic diagram for studying the effect of Protopolybia-MP III on HSV-1 free virion infectivity. (B) Effects of Protopolybia-MP III on HSV-1 free virion infectivity at different temperatures. HSV-1 (MOI = 1) and 20 μg/mL Protopolybia-MP III or PBS were coincubated at 4 °C, 22 °C, and 37 °C for 1 h, and then Vero cells were infected as described in (A). After 24 h, cells were collected, and intracellular HSV-1 RNA was analyzed by qPCR. (C) Effects of different concentrations of Protopolybia-MP III on HSV-1 free virion infectivity. HSV-1 (MOI = 1) and 1 or 10 μg/mL Protopolybia-MP III or PBS were coincubated at 37 °C for 1 h, and then Vero cells were infected as described in (A). After 24 h, cells were collected, and intracellular HSV-1 RNA was analyzed by qPCR. (D,E) The effect of Protopolybia-MP III on HSV-1 free virion integrity. HSV-1 and 20 μg/mL Protopolybia-MP III or PBS were coincubated at 37 °C for 1 h. Then, after centrifuging for 2 h at 40,000 rpm at 4 °C, the contents of HSV-1 gB in the supernatant and precipitate were detected by Western blotting (D). In addition, the structure of HSV-1 virions after incubation with Protopolybia-MP III was observed by electron microscopy. The red arrow points to a destroyed HSV-1 virion. *** p < 0.001.
as §3
(§5) Cells were collected and lysed using TRIzol reagent (Beyotime Biotechnology, Shanghai, China) to release the intracellular total RNA, followed by precipitation with isopropanol. The first-strand cDNA was reverse-transcribed by the HiScript III 1st Strand cDNA Synthesis Kit (+gDNA wiper) (Vazyme, Nanjing, China). The cDNA was quantitated by qPCR with primers using Taq Pro Universal SYBR qPCR Master Mix (Vazyme). The HSV-1 primers were 5′-[…]-3′ (sense) and 5′-[…]-3′ (antisense). The monkey GAPDH primers were 5′-[…]-3′ (sense) and 5′-[…]-3′ (antisense). The human GAPDH primers were 5′-[…]-3′ (sense) and 5′-[…]-3′ (antisense). qPCR experiments were performed on a Bio-Rad CFX96 Touch (Pleasanton, CA, USA) according to the manufacturer’s instructions.

HSV-1 [1] = type: cell-based, herpes simplex virus type 1; conditions: Vero cells, preincubated 1 h, HSV-1 MOI 1, 24 h, qPCR
Method: as §1, §2, §4, §5

HSV-1 [2] = experiment: Plaque formation assay of extracellular HSV-1 particles; type: cell-based, herpes simplex virus type 1; conditions: Vero cells treated 24 h, supernatant in plaque formation assay
Method: as §1, §2
Vero cells seeded in a 24-well plate at 100% confluence were infected with virus diluent or supernatant. After 1 h of absorption at 37 °C, the supernatant was removed. Cells were washed three times with PBS and replenished with a plaque-covering layer (MEM with 2% FBS and 1.5% carboxymethylcellulose). After an incubation period of approximately 3 days, the cells were stained with 1% crystal violet containing 10% methanol for 0.5 h. Then, the plaques were counted, and the viral titer was calculated according to the plaque number and dilution.

Vero cells = experiment: CCK8 cytotoxicity assay, Vero cells; type: cell-based, monkey; conditions: 40 μg/mL, 24 h
Method: as §1
Cells were seeded in a 96-well plate (7000–10,000 cells per well) and cultured at 37 °C overnight. Peptides in a series of concentrations were added to the medium, and cells were then incubated at 37 °C for 24 h. […] Finally, the absorbance was measured at 450 nm using a microplate reader (BioTek, Winooski, VT, USA).

Substance	inhibition rate on intracellular HSV-1 ICP0 protein expression (HSV-1 ICP0; 20 μg/mL) [%]	inhibition rate of HSV-1 free virion infectivity (HSV-1 virion) [%]	other results
INWLKLGKKVIDIL-NH2 [MP III-7]	100	100	–
INWLKLGKKVSDIL-NH2 [MP III-13]	60.2	–	–
INWLKLGKAVIAIL-NH2 [MP III-10]	100	100	–
INWLKLGKKVSAAL-NH2 [MP III-14]	90.8	25.3	–
INWLKLGKAVSAAL-NH2 [MP III-8]	66	–	–
INWLKLGKAVSAIL-NH2 [MP III-11]	73.4	64.7	–
INWLKLGKAVIAAL-NH2 [MP III-3]	94	58.3	–
INWLKLGKKVIDAL-NH2 [MP III-1]	53.7	59.7	–
INWLKLGKAVSDAL-NH2 [MP III-2]	20.6	27.4	–
INWLKLGKKVIAIL-NH2 [MP III-12]	76.8	92.4	–
INWLKLGKAVIDIL-NH2 [MP III-4]	99.4	–	–
INWLKLGKKVSAIL-NH2 [Protopolybia-MP I]	–	–	inhibition rate on intracellular HSV-1 RNA (HSV-1 [1]; 5 μg/mL peptide): no effect; inhibition rate on intracellular HSV-1 RNA (HSV-1 [1]; 10 μg/mL peptide): no effect; inhibition rate on intracellular HSV-1 RNA (HSV-1 [1]; 20 μg/mL peptide): no effect; inhibition rate on intracellular HSV-1 ICP0 expression level (HSV-1 ICP0; 5 μg/mL): 17%; inhibition rate on intracellular HSV-1 ICP0 expression level (HSV-1 ICP0; 10 μg/mL): 17%; inhibition rate on intracellular HSV-1 ICP0 expression level (HSV-1 ICP0; 20 μg/mL): 25%; extracellular HSV-1 particles (plaques) (HSV-1 [2]): almost no inhibitory effect; cytotoxicity to Vero cells (Vero cells): almost nontoxic
INWLKLGKKVIAAL-NH2 [MP III-6]	63.2	95.5	–
INWLKLGKKVSDAL-NH2 [MP III-5]	74.8	–	–
INWLKLGKAVSDIL-NH2 [MP III-9]	63.8	63.6	–
